Measured values: patent US20250034149A1, “DIHYDROPYRROLO[3,4C]-PYRAZOLE DERIVATIVES AND THEIR USE IN DIAGNOSIS” (AC IMMUNE SA, priority 2021, published 2025)
pKi: −log10 of the molar value. Counter-ions that a name gives are not always drawn.

Molecular target: T1, PD brain-derived alpha-synuclein aggregates (Homo sapiens, UniProt P37840)
T1 construct: from tissue; host or cells: human PD donor brain tissue, sarkosyl-insoluble fraction
Assay: Micro-radiobinding competition assay for the determination of binding affinity
Details: for pKi: compound concentrations 0.05 nM to 2 μM, nonlinear regression, one site model
Procedure: The procedure was adapted from the protocol described in Spillantini et al., 1998. Frozen tissue blocks from PD donors were thawed on ice and homogenized using a glass dounce homogenizer. The homogenate was then centrifuged at 11,000×g (12,700 RPM) in an ultracentrifuge (Beckman, XL100K) for 20 minutes at 4° C. using a pre-cooled 70.1 rotor (Beckman, 342184). Pellets were resuspended in extraction buffer [10 mM Tris —HCl PH 7.4, 10% sucrose, 0.85 mM NaCl, 1% protease inhibitor (Calbiochem 539131), 1 mM EGTA, 1% phosphatase inhibitor (Sigma P5726 and P0044)] and centrifuged at 15,000×g (14,800 RPM, a 70.1 Ti rotor) for 20 minutes at 4° C. Pellets were discarded and sarkosyl (20% stock solution, Sigma L7414) was added to the supernatants to a final concentration of 1% at room temperature for one hour. This solution was then centrifuged at 100,000×g (38,000 RPM, 70.1 Ti rotor) for one hour at 4° C. Pellets containing enriched alpha-synuclein aggregates were resuspended in PBS and stored at −80° C. until use.
PD brain-derived alpha-synuclein aggregates were spotted onto microarray slides. The slides were incubated with tritiated reference alpha-synuclein ligand at 6 nM, 20 nM or 30 nM and the example compounds (non-radiolabelled) at 1 μM and 100 nM. In some cases, the non-radiolabelled example compounds were further assessed for a range of different concentrations, varying from 0.05 nM to 2 μM. After incubation, slides were washed and scanned by a real-time autoradiography system (BeaQuant, ai4R). Quantification of the signal was performed by using the Beamage image analysis software (ai4R). Non-specific signal was determined with an excess of non-radiolabelled reference alpha-synuclein ligand (2 μM) and specific binding was calculated by subtracting the non-specific signal from the total signal. Competition was calculated as percent, where 0% was defined as the specific binding in the presence of vehicle and 100% as the values obtained in the presence of excess of the non-radiolabelled reference alpha-synuclein ligand. Ki values were calculated in GraphPad Prism7 by applying a nonlinear regression curve fit using a one site, specific binding model. All measurements were performed with at least two technical replicates. For compounds tested in more than one experiment, the mean of the replicates or Ki values in independent experiments is reported.
Results: Example compounds were assessed for their potency to compete with the binding of a tritiated reference alpha-synuclein ligand to PD patient brain-derived alpha-synuclein aggregates. Results of the micro-radiobinding competition assay for the example compounds tested are shown in Table 2 as: % competition at 1 μM and 100 nM.

[1] = 100 nM non-radiolabelled example compound, competition over tritiated reference alpha-synuclein ligand (6 nM, 20 nM or 30 nM)
[2] = 1 μM non-radiolabelled example compound, competition over tritiated reference alpha-synuclein ligand (6 nM, 20 nM or 30 nM)

| inhibition at 0.1 µM [1] | inhibition at 1 µM [2] | pKi | Micro-radiobinding competition assay Competition at 100 nM (%) [1] | Micro-radiobinding competition assay Competition at 1 μM (%) (1 μM non-radiolabelled example compound, competition over tritiated reference alpha-synuclein ligand (6 nM, 20 nM or 30 nM), hydrochloride) | SMILES |
| --- | --- | --- | --- | --- | --- |
| 10% | 52% |  |  |  | COc1cncc(N2Cc3cn(-c4ccc(N5CC[C@@H](F)C5)nc4)nc3C2=O)c1 [Example 7, 2-{6-[(3R)-3-fluoropyrrolidin-1-yl]pyridin-3-yl}-5-(5-methoxypyridin-3-yl)-2H,4H,5H,6H-pyrrolo[3,4-c]pyrazol-6-one] |
| 38% | 89% | 7.27 |  |  | Cn1cc(N2Cc3cn(-c4ccc(N5CC(F)C5)nc4)nc3C2=O)cn1 [Example 3, 2-(6-(3-fluoroazetidin-1-yl)pyridin-3-yl)-5-(1-methyl-1H-pyrazol-4-yl)-4,5-dihydropyrrolo[3,4-c]pyrazol-6(2H)-one] |
| 34% | 80% | 6.94 |  |  | O=C1c2nn(-c3ccc(N4CC[C@H](F)C4)nc3)cc2CN1c1cccnc1 [Example 2, 2-{6-[(3S)-3-fluoropyrrolidin-1-yl]pyridin-3-yl}-5-(pyridin-3-yl)-2H,4H,5H,6H-pyrrolo[3,4-c]pyrazol-6-one] |
| 64% | 94% | 7.28 |  |  | O=C1c2nn(-c3ccc(N4CC[C@@H](F)C4)nc3)cc2CN1c1cncs1 [Example 12, 2-{6-[(3R)-3-fluoropyrrolidin-1-yl]pyridin-3-yl}-5-(1,3-thiazol-5-yl)-2H,4H,5H,6H-pyrrolo[3,4-c]pyrazol-6-one] |
| 26% | 60% |  |  |  | COc1cncc(N2Cc3cn(-c4ccc(N5CC[C@H](F)C5)nc4)nc3C2=O)c1 [Example 6, 2-{6-[(3S)-3-fluoropyrrolidin-1-yl]pyridin-3-yl}-5-(5-methoxypyridin-3-yl)-2H,4H,5H,6H-pyrrolo[3,4-c]pyrazol-6-one] |
| 37% | 87% |  |  |  | Cc1ccc(N2Cc3cn(-c4ccc(N5CC[C@H](F)C5)nc4)nc3C2=O)cn1 [Example 9, 2-{6-[(3S)-3-fluoropyrrolidin-1-yl]pyridin-3-yl}-5-(6-methylpyridin-3-yl)-2H,4H,5H,6H-pyrrolo[3,4-c]pyrazol-6-one] |
|  |  |  | 37% | 87% | Cc1ccc(N2Cc3cn(-c4ccc(N5CCC(F)C5)nc4)nc3C2=O)cn1 (stereo in doubt) [Example 13, 2-{6-[(3S)-3-fluoropyrrolidin-1-yl]pyridin-3-yl}-5-(6-methylpyridin-3-yl)-2H,4H,5H,6H-pyrrolo[3,4-c]pyrazol-6-one hydrochloride] |
| 28% | 75% |  |  |  | Cn1cc(N2Cc3cn(-c4ccc(N5CC[C@H](F)C5)nc4)nc3C2=O)cn1 [Example 4, 2-{6-[(3S)-3-fluoropyrrolidin-1-yl]pyridin-3-yl}-5-(1-methyl-1H-pyrazol-4-yl)-2H,4H,5H,6H-pyrrolo[3,4-c]pyrazol-6-one] |
| 74% | 101% |  |  |  | Cn1cc(N2Cc3cn(-c4ccc(N5CC[C@@H](F)C5)nc4)nc3C2=O)cn1 [Example 5, 2-{6-[(3R)-3-fluoropyrrolidin-1-yl]pyridin-3-yl}-5-(1-methyl-1H-pyrazol-4-yl)-2H,4H,5H,6H-pyrrolo[3,4-c]pyrazol-6-one] |
| 74% | 97% | 7.52 |  |  | O=C1c2nn(-c3ccc(N4CC[C@@H](F)C4)nc3)nc2CN1c1cccnc1 [Example 10, 2-{6-[(3R)-3-fluoropyrrolidin-1-yl]pyridin-3-yl}-5-(pyridin-3-yl)-2H,4H,5H,6H-pyrrolo[3,4-d][1,2,3]triazol-4-one] |
| 41% | 90% |  |  |  | O=C1c2nn(-c3ccc(N4CC[C@H](F)C4)nc3)cc2CN1c1cncs1 [Example 11, 2-{6-[(3S)-3-fluoropyrrolidin-1-yl]pyridin-3-yl}-5-(1,3-thiazol-5-yl)-2H,4H,5H,6H-pyrrolo[3,4-c]pyrazol-6-one] |
| 54% | 81% | 7.11 |  |  | Cn1cc(N2Cc3cn(-c4ccc(OCCF)nc4)nc3C2=O)cn1 [Example 18, 2-(6-(2-fluoroethoxy)pyridin-3-yl)-5-(1-methyl-1H-pyrazol-4-yl)-4,5-dihydropyrrolo[3,4-c]pyrazol-6(2H)-one] |
| 69% | 90% | 7.40 |  |  | Cc1ncc(N2Cc3cn(-c4ccc(N5CC[C@H](F)C5)nc4)nc3C2=O)s1 [Example 16, (S)-2-(6-(3-fluoropyrrolidin-1-yl)pyridin-3-yl)-5-(2-methylthiazol-5-yl)-4,5-dihydropyrrolo[3,4-c]pyrazol-6(2H)-one] |
| 58% | 86% | 7.08 |  |  | O=C1c2nn(-c3ccc(N4CC[C@@H](F)C4)nc3)cc2CN1c1cccnc1 [Example 1, 2-{6-[(3R)-3-fluoropyrrolidin-1-yl]pyridin-3-yl}-5-(pyridin-3-yl)-2H,4H,5H,6H-pyrrolo[3,4-c]pyrazol-6-one] |
| 55% | 86% |  |  |  | Cc1ncc(N2Cc3cn(-c4ccc(OCCF)nc4)nc3C2=O)s1 [Example 20, 2-(6-(2-fluoroethoxy)pyridin-3-yl)-5-(2-methylthiazol-5-yl)-4,5-dihydro-pyrrolo[3,4-c]pyrazol-6(2H)-one] |
| 37% | 71% | 6.65 |  |  | Cc1ccc(N2Cc3cn(-c4ccc(N5CC[C@@H](F)C5)nc4)nc3C2=O)cn1 [Example 8, 2-{6-[(3R)-3-fluoropyrrolidin-1-yl]pyridin-3-yl}-5-(6-methylpyridin-3-yl)-2H,4H,5H,6H-pyrrolo[3,4-c]pyrazol-6-one] |
| 31% | 63% | 6.67 |  |  | O=C1c2nn(-c3ccc(OCCF)nc3)cc2CN1c1cccnc1 [Example 17, 2-(6-(2-fluoroethoxy)pyridin-3-yl)-5-(pyridin-3-yl)-4,5-dihydropyrrolo[3,4-c]pyrazol-6 (2H)-one] |
| 71% | 92% |  |  |  | Cc1ncc(N2Cc3cn(-c4ccc(N5CC[C@@H](F)C5)nc4)nc3C2=O)s1 [Example 15, (R)-2-(6-(3-fluoropyrrolidin-1-yl)pyridin-3-yl)-5-(2-methylthiazol-5-yl)-4,5-dihydropyrrolo[3,4-c]pyrazol-6(2H)-one] |
| 46% | 78% | 7.07 |  |  | O=C1c2nn(-c3ccc(OCCF)nc3)cc2CN1c1cncs1 [Example 19, 2-(6-(2-fluoroethoxy)pyridin-3-yl)-5-(thiazol-5-yl)-4,5-dihydropyrrolo [3,4-c]pyrazol-6(2H)-one] |
| 0% | 66% |  |  |  | Cn1cc(N2Cc3cn(-c4ccc(N5CCCC(F)CC5)nc4)nc3C2=O)cn1 (centres unmarked) [Example 14, 2-(6-(4-fluoroazepan-1-yl)pyridin-3-yl)-5-(1-methyl-1H-pyrazol-4-yl)-4,5-dihydropyrrolo[3,4-c]pyrazol-6(2H)-one hydrochloride] |
